Reference: US7528136B2, “Prolinamide derivatives as NK3 antagonists” (Hoffmann-La Roche Inc., priority 2007, dated 2009)

Tests used:
[1] = molecular target: T1, recombinant human NK3 receptor (Homo sapiens, UniProt P29371); assay: [3H]SR142801 competition binding assay; conditions: [3H]SR142801, membranes from HEK293 cells transiently expressing hNK3; read-out: Data (hNK-3 receptor affinity)
T1 construct: expressed in transfected cells; host or cells: HEK293 cells (transient expression), membranes
T1 sequence (P29371 1-465): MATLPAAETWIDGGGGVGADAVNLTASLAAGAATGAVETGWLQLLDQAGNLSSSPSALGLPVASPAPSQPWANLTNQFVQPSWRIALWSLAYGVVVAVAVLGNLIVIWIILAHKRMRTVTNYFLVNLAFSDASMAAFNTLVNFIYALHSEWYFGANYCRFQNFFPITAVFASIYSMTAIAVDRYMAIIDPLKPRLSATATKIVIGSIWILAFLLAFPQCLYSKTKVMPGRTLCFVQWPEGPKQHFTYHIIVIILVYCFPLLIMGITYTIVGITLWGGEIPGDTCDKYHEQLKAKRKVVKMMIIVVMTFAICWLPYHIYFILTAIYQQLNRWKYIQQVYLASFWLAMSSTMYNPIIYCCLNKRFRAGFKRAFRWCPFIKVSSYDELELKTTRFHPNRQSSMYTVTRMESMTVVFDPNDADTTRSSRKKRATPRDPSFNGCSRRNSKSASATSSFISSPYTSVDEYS
Method: [^3H]SR142801 Competition Binding Assay
hNK3 receptor binding experiment were performed using [^3H]SR142801 (Catalog No. TRK1035, specific activity: 74.0 Ci/mmol, Amersham, GE Healthcare UK limited, Buckinghamshire, UK) and membrane isolated from HEK293 cells transiently expressing recombinant human NK3 receptor. After thawing, the membrane homogenates were centrifuged at 48,000×g for 10 min at 4° C., the pellets were resuspended in the 50 mM Tris-HCl, 4 mM MnCl2, 1 μM phosphoramidon, 0.1% BSA binding buffer at pH 7.4 to a final assay concentration of 5 μg protein/well. For inhibition experiments, membranes were incubated with [^3H]SR142801 at a concentration equal to KD value of radioligand and 10 concentrations of the inhibitory compound (0.0003-10 μM) (in a total reaction volume of 500 μl) for 75 min at room temperature (RT). At the end of the incubation, membranes were filtered onto unitfilter (96-well white microplate with bonded GF/C filter preincubated 1 h in 0.3% PEI+0.3% BSA, Packard BioScience, Meriden, Conn.) with a Filtermate 196 harvester (Packard BioScience) and washed 4 times with ice-cold 50 mM Tris-HCl, pH 7.4 buffer. Nonspecific binding was measured in the presence of 10 μM SB222200 for both radioligands. The radioactivity on the filter was counted (5 min) on a Packard Top-count microplate scintillation counter with quenching correction after addition of 45 μl of microscint 40 (Can berra Packard S. A., Zürich, Switzerland) and shaking for 1 h. Inhibition curves were fitted according to the Hill equation: y=100/(1+(x/IC50)^nH), where nH=slope factor using Excel-fit 4 software (Microsoft). IC50 values were derived from the inhibition curve and the affinity constant (Ki) values were calculated using the Cheng-Prussoff equation Ki=IC50/(1+[L]/KD) where [L] is the concentration of radioligand and KD is its dissociation constant at the receptor, derived from the saturation isotherm. All experiments were performed in duplicate and the mean±standard error (SEM) of the individual Ki values was calculated.

schizophrenia = conditions: phase II trial, cited from earlier work

| Ki [1] [nM] | Structure (SMILES) | further results |
| --- | --- | --- |
| 27.9 | N#Cc1ccccc1N1CCN(C(=O)[C@@H]2C[C@H](NCc3ccc(F)c(Cl)c3)CN2Cc2ccccc2)CC1 [Example 45, 2-{4-[(2S,4S)-1-Benzyl-4-(3-chloro-4-fluoro-benzylamino)-pyrrolidine-2-carbonyl]-piperazin-1-yl}-benzonitrile] |  |
| 29 | N#Cc1ccccc1N1CCN(C(=O)[C@@H]2C[C@H](NCc3ccc(Cl)c(Cl)c3)CN2Cc2ccccc2)CC1 [Example 48, 2-{4-[(2S,4S)-1-Benzyl-4-(3,4-dichloro-benzylamino)-pyrrolidine-2-carbonyl]-piperazin-1-yl}-benzonitrile] |  |
| 48 | N#Cc1ccccc1N1CCN(C(=O)[C@@H]2C[C@H](NCc3cccc(Cl)c3F)CN2Cc2ccccc2)CC1 [Example 49, 2-{4-[(2S,4S)-1-Benzyl-4-(3-chloro-2-fluoro-benzylamino)-pyrrolidine-2-carbonyl]-piperazin-1-yl}-benzonitrile] |  |
| 47 | N#Cc1ccccc1N1CCN(C(=O)C2CC(NCc3ccc(F)cc3F)CN2Cc2cccc(F)c2)CC1 (stereo not shown) [Example 54, 2-{4-[4-(2,4-Difluoro-benzylamino)-1-(3-fluoro-benzyl)-pyrrolidine-2-carbonyl]-piperazin-lyl}-benzonitrile] |  |
| 39 | CN(Cc1cc(C(F)(F)F)cc(C(F)(F)F)c1)[C@H]1C[C@@H](C(=O)N2CCN(c3cccc(C(F)(F)F)c3)CC2)N(Cc2ccccc2)C1 [Example 62, {(2S,4S)-1-Benzyl-4-[(3,5-bis-trifluoromethyl-benzyl)-methyl-amino]-pyrrolidin-2-yl}-[4-(3-trifluoromethyl-phenyl)-piperazin-1-yl]-methanone] |  |
| 41.2 | CN(Cc1cc(C(F)(F)F)cc(C(F)(F)F)c1)[C@H]1C[C@@H](C(=O)N2CCN(c3cccc(C(F)(F)F)c3)CC2)N(Cc2cccc(Cl)c2)C1 [Example 68, [(2S,4S)-4-[(3,5-Bis-trifluoromethyl-benzyl)-methyl-amino]-1-(3-chloro-benzyl)-pyrrolidin-2-yl]-[4-(3-trifluoromethyl-phenyl)-piperazin-1-yl]-methanone] |  |
| 52 | O=C([C@@H]1C[C@@H](NCc2ccc(F)cc2F)CN1Cc1ccccc1)N1CCN(c2cccc(C(F)(F)F)c2)CC1 [Example 87, [(2S,4R)-1-Benzyl-4-(2,4-difluoro-benzylamino)-pyrrolidin-2-yl]-[4-(3-trifluoromethyl-phenyl)-piperazin-1-yl]-methanone] |  |
| 97 | N#Cc1ccccc1N1CCN(C(=O)[C@@H]2C[C@@H](NCc3ccc(F)cc3F)CN2Cc2ccccc2)CC1 [Example 88, 2-{4-[(2S,4R)-1-Benzyl-4-(2,4-difluoro-benzylamino)-pyrrolidine-2-carbonyl]-piperazin-1-yl}-benzonitrile] |  |

Second part, the compound before the results:

| Structure (SMILES) | Ki [1] [nM] | further results |
| --- | --- | --- |
| N#Cc1ccccc1N1CCN(C(=O)[C@@H]2C[C@H](NCc3ccc(F)cc3F)CN2Cc2ccccc2)CC1 [Example 1, 2-{4-[(2S,4S)-1-Benzyl-4-(2,4-difluoro-benzylamino)-pyrrolidine-2-carbonyl]-piperazin-1-yl}-benzonitrile] | 12.2 |  |
| O=C([C@@H]1C[C@H](NCc2ccc(F)cc2F)CN1Cc1ccccc1)N1CCN(c2cccc(C(F)(F)F)c2)CC1 [Example 5, [(2S,4S)-1-Benzyl-4-(2,4-difluoro-benzylamino)-pyrrolidin-2-yl]-[4-(3-trifluoromethyl-phenyl)-piperazin-1-yl]-methanone] | 37.6 |  |
| O=C([C@@H]1C[C@H](NCc2ccc(F)cc2F)CN1Cc1ccccc1)N1CCN(c2ccccc2)CC1 [Example 7, [(2S,4S)-1-Benzyl-4-(2,4-difluoro-benzylamino)-pyrrolidin-2-yl]-(4-phenyl-piperazin-1-yl)-methanone] | 63 |  |
| O=C([C@@H]1C[C@H](NCc2ccc(F)cc2F)CN1Cc1ccccc1)N1CCN(c2ccc(F)cc2)CC1 [Example 8, [(2S,4S)-1-Benzyl-4-(2,4-difluoro-benzylamino)-pyrrolidin-2-yl]-[4-(4-fluoro-phenyl)-piperazin-1-yl]-methanone] | 64.8 |  |
| O=C([C@@H]1C[C@H](NCc2ccc(F)cc2F)CN1Cc1ccccc1)N1CCN(c2ccccc2Cl)CC1 [Example 10, [(2S,4S)-1-Benzyl-4-(2,4-difluoro-benzylamino)-pyrrolidin-2-yl]-[4-(2-chloro-phenyl)-piperazin-1-yl]-methanone] | 56.7 |  |
| COc1ccccc1N1CCN(C(=O)[C@@H]2C[C@H](NCc3ccc(F)cc3F)CN2Cc2ccccc2)CC1 [Example 12, [(2S,4S)-1-Benzyl-4-(2,4-difluoro-benzylamino)-pyrrolidin-2-yl]-[4-(2-methoxy-phenyl)-piperazin-1-yl]-methanone] | 23.5 |  |
| COc1cc2c(cc1OC)CN(C(=O)[C@@H]1C[C@H](NCc3ccc(F)cc3F)CN1Cc1ccccc1)CC2 [Example 13, [(2S,4S)-1-Benzyl-4-(2,4-difluoro-benzylamino)-pyrrolidin-2-yl]-(6,7-dimethoxy-3,4-dihydro-1H-isoquinolin-2-yl)-methanone] | 39.4 |  |
| CN(Cc1cc(C(F)(F)F)cc(C(F)(F)F)c1)[C@H]1C[C@@H](C(=O)N2CCN(c3ccccc3C#N)CC2)N(Cc2ccccc2)C1 [Example 32, 2-(4-{(2S,4S)-1-Benzyl-4-[(3,5-bis-trifluoromethyl-benzyl)-methyl-amino]-pyrrolidine-2-carbonyl}-piperazin-1-yl)-benzonitrile] | 64.4 |  |
| COc1cc(CN[C@H]2C[C@@H](C(=O)N3CCN(c4ccccc4C#N)CC3)N(Cc3ccccc3)C2)cc(OC)c1 [Example 34, 2-{4-[(2S,4S)-1-Benzyl-4-(3,5-dimethoxy-benzylamino)-pyrrolidine-2-carbonyl]-piperazin-1-yl}-benzonitrile] | 44 |  |
| N#Cc1ccccc1N1CCN(C(=O)[C@@H]2C[C@H](NCc3ccccc3C(F)(F)F)CN2Cc2ccccc2)CC1 [Example 36, 2-{4-[(2S,4S)-1-Benzyl-4-(2-trifluoromethyl-benzylamino)-pyrrolidine-2-carbonyl]-piperazin-1-yl}-benzonitrile] | 94.8 |  |
| N#Cc1ccccc1N1CCN(C(=O)[C@@H]2C[C@H](NCc3cc(C(F)(F)F)ccc3Cl)CN2Cc2ccccc2)CC1 [Example 38, 2-{4-[(2S,4S)-1-Benzyl-4-(2-chloro-5-trifluoromethyl-benzylamino)-pyrrolidine-2-carbonyl]-piperazin-1-yl}-benzonitrile] | 58 |  |
| N#Cc1ccccc1N1CCN(C(=O)[C@@H]2C[C@H](NCc3cccc(Cl)c3)CN2Cc2ccccc2)CC1 [Example 40, 2-{4-[(2S,4S)-1-Benzyl-4-(3-chloro-benzylamino)-pyrrolidine-2-carbonyl]-piperazin-1-yl}-benzonitrile] | 71 |  |
| CC(=O)N(C)C1(c2ccccc2)CCN(CCC[C@]2(c3ccc(Cl)c(Cl)c3)CCCN(C(=O)c3ccccc3)C2)CC1 [SR 142,801, Osanetant] |  | activity on positive symptoms of schizophrenia (schizophrenia; altered behavior, delusion, hallucinations, extreme emotions, excited motor activity, incoherent speech): active; activity in the treatment of negative symptoms (schizophrenia; depression, anhedonia, social isolation, memory and attention deficits): inactive |
